In assay [1] the target is T1, Prostaglandin G/H synthase 2 (Mus musculus) (UniProt Q05769).
T1 sequence (whole entry): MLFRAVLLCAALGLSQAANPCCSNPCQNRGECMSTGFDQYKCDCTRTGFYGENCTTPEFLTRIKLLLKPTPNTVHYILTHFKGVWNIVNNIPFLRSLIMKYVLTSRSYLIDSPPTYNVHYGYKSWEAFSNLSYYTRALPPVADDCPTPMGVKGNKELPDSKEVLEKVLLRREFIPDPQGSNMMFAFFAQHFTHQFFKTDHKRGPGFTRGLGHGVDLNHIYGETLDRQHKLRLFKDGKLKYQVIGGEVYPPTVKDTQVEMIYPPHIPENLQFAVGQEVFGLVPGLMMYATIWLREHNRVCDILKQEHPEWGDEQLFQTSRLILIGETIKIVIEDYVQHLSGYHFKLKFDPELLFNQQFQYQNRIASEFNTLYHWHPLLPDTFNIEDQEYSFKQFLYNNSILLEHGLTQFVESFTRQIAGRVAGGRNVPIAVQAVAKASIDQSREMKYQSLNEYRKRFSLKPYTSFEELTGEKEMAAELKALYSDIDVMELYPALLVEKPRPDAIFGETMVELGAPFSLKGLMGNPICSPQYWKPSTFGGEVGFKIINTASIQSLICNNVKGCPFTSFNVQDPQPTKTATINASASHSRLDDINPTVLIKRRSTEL
Description: (§1) Inhibition of COX2 in mouse lung fibroblast assessed as PGE2 production by radioimmunoassay.

A further assay has as its system KB. Description: Cytotoxicity against human KB cells. In kind it is functional, cell-based.
The next assay relates to NCI-H187. Description: Cytotoxicity against human NCI-H187 cells. In kind it is functional, cell-based.
Another assay has as its system BC. Description: (§2) Cytotoxicity against human BC cells. Format: functional, cell-based.
Assay [2] relates to Radical scavenging activity. Description: Antioxidant activity assessed as DPPH radical scavenging activity by DPPH stable radical assay.
A further assay has as its system Vero. Nature of the assay: Cytotoxicity against african green monkey Vero cells. In kind it is cell-based. Conditions: Chlorocebus sabaeus.
A short description of assay [3]: as §2. In kind it is functional, cell-based.
Assay [4] concerns the target T2, Prostaglandin G/H synthase 2 (Mus musculus, UniProt Q05769).
T2 sequence (Q05769 whole entry): T1 sequence (whole entry)
The description is as §1.

The text below walks through data of ChEMBL document CHEMBL1158792, “Constituents of the leaves of Macaranga tanarius” (J Nat Prod, 2005).

In brackets after ≈: the same amount, converted by molar mass. Activity calls are given as the source filed them. The calls are words filed in the database; no cut-off is given here.

For the compound `COc1cc(O)c2c(c1)O[C@H](c1ccc(OC)c(OC)c1C/C=C(\C)CCC=C(C)C)CC2=O`, the outcome (in assay [1]; in the assay on KB; in the assay with NCI-H187; in the assay with BC) was inactive.
For the compound `CC(C)=CCCC1(C)C=Cc2c([C@@H]3CC(=O)c4c(cc(O)c(CC=C(C)C)c4O)O3)ccc(O)c2O1` (some centres undefined), the result (in assay [1]; in the assay with KB; in the assay on NCI-H187; in the assay on BC) was inactive.
For the compound `COc1cc2c(c(O)c1CC=C(C)C)C(=O)C[C@@H](c1ccc(OC)c(OC)c1C/C=C(\C)CCC=C(C)C)O2`, the result (in assay [1]; with KB; in the assay with NCI-H187; in the assay on BC) was inactive. In assay [2], the IC50 turned out to be 599 µM.
As for `C=C(C)C(O)CC/C(C)=C/Cc1c(O)cc2c(c1O)C(=O)C[C@@H](c1ccc(O)c(O)c1)O2` (some centres undefined) [TANARIFLAVANONE D], the IC50 in the assay on Vero was 19.5 µg/mL (≈ 44.3 µM); in assay [2], 20 µM; in assay [3], 6.5 µg/mL (≈ 14.8 µM). For the same compound, in the assay on NCI-H187, the result was inactive.
As for `COc1cc(O)c2c(c1)O[C@H](c1ccc(OC)c(O)c1C/C=C(\C)CCC=C(C)C)CC2=O`, the result (in assay [1]; with KB; in the assay with NCI-H187; in the assay with BC) was inactive.
Consider `CC(C)=CCC/C(C)=C/Cc1c([C@@H]2CC(=O)c3c(O)cc(O)cc3O2)ccc(O)c1O` [NYMPHAEOL B], for which the results for the IC50 in assay [4] and in assay [2] were 8.72 µM and 13 µM, respectively. Besides, the outcome with KB, in the assay on NCI-H187 and in the assay with BC was inactive.
As for `CC1=CC(=O)CC(C)(C)[C@@]1(O)CC[C@@H](C)O`, the outcome (in assay [1]; in the assay on KB; with NCI-H187; with BC) was inactive.
With `CC(C)=CCC/C(C)=C/Cc1c([C@@H]2CC(=O)c3c(cc(O)c(CC=C(C)C)c3O)O2)ccc(O)c1O` [NYMPHAEOL C], the outcome (in assay [1]; with KB; with NCI-H187; with BC) was inactive. The IC50 in assay [2] turned out to be 15 µM.
For `CC1=CC(=O)CC(C)(C)[C@@]1(O)/C=C/[C@@H](C)O`, the result (in assay [1]; with KB; in the assay on NCI-H187; with BC) was inactive.
As for `COc1ccc([C@@H]2CC(=O)c3c(cc(OC)c(CC=C(C)C)c3O)O2)c(C/C=C(\C)CCC=C(C)C)c1O`, the result (in assay [1]; with KB; with NCI-H187; in the assay with BC) was inactive. Further, the IC50 in assay [2] is 413 µM.
Turning to `CC(C)=CCC/C(C)=C/Cc1c(O)cc2c(c1O)C(=O)C[C@@H](c1ccc(O)c(O)c1)O2` [NYMPHAEOL A], the IC50 in the assay with Vero amounted to 3.8 µg/mL (≈ 8.95 µM); in the assay on KB it was 4.6 µg/mL (≈ 10.8 µM); in assay [2], 14 µM; in the assay with NCI-H187, 1.5 µg/mL (≈ 3.53 µM); in assay [3], 2.7 µg/mL (≈ 6.36 µM).
Consider `COc1ccc([C@@H]2CC(=O)c3c(cc(OC)c(C/C=C(\C)CCC=C(C)C)c3O)O2)cc1OC`, for which the outcome (in assay [1]; with KB; in the assay with NCI-H187; in the assay on BC) was inactive.
For `Cc1cc(C(C)(C)C)c(O)c(C(C)(C)C)c1` [BUTYLATED HYDROXYTOLUENE], the IC50 in assay [2] worked out at 30 µM.
Regarding `C=C(C)C(O)Cc1c(O)cc2c(c1O)C(=O)C[C@@H](c1ccc(O)c(O)c1C/C=C(\C)CCC=C(C)C)O2` (some centres undefined) [TANARIFLAVANONE C], the result (in assay [1]; with KB; in the assay with NCI-H187; in the assay with BC) was inactive. In addition, in assay [2], the IC50 stood at 33 µM.

What is called IC50 is the point on the concentration scale where inhibition reaches its midpoint.
